Target: T1, mouse ENT-1 transporter (Mus musculus, UniProt Q9JIM1)
T1 construct: expressed in transfected cells
T1 sequence (Q9JIM1 1-460): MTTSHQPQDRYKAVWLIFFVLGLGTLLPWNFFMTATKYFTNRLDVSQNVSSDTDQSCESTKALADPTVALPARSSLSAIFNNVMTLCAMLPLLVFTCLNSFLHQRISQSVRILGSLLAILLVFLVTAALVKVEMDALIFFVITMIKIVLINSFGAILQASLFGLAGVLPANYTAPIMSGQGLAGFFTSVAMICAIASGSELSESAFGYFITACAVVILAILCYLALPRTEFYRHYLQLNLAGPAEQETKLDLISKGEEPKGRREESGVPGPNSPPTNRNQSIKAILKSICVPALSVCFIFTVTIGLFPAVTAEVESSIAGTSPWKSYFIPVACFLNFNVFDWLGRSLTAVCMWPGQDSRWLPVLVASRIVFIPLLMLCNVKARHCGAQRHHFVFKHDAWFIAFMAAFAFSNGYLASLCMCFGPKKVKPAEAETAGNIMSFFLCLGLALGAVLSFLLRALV
Experiment: Measure of adenosine transport activity (ENT1 adenosine uptake inhibition)
Format: cell-based
Details: stable cells expressing mouse ENT-1, [2,8-3H]-adenosine 6 nM, 20 min
Procedure: To measure adenosine transport activity of ENT-1 mammalian cells, stable cells expressing the mouse ENT-1 transporter were plated on day 1 in 96-well culture plates at the density of 60,000 cells/well, in complete DMEM/F12 medium supplemented with glutamax, 10% FBS and 10 μg/ml puromycin. On day 2, the medium was aspirated and the cells were washed twice with uptake buffer (10 mM Hepes-Tris, pH 7.4 containing 150 mM NaCl, 1 mM CaCl2), 2.5 mM KCl, 2.5 mM MgSO4, 10 mM D-glucose) (UB). For inhibition experiments, cells were then incubated at RT with various concentrations of compounds with 1% DMSO final. Non-specific uptake was defined in the presence of 10 μM S-(4-Nitrobenzyl)-6-thioinosine (NBTI, Sigma Cat #N2255).
The plates were then incubated for 20 min with gentle shaking and the reaction was stopped by aspiration of the mixture and washing (three times) with ice-cold UB. The cells were lysed by the addition of scintillation liquid, shaken 3 hours and the radioactivity in the cells was estimated using a microplates scintillation counter (TopCount NXT, Packard).

**Q.** `Cc1ccc(N2C(=O)C(C)(C)c3ccc(-n4cnc(C(C)C)c4)cc32)cn1` [Example 33, 6-(4-Isopropylimidazol-1-yl)-3,3-dimethyl-1-(6-methyl-3-pyridyl)indolin-2-one] was tested. Which IC50 did it give?
**A.** Its IC50 is 1220 nM.

**Q.** `Cc1ncc(-c2ccc3c(c2)N(c2cc(Cl)nc(Cl)c2)C(=O)C3(C)C)cn1` [Example 115, 1-(2,6-dichloropyridin-4-yl)-3,3-dimethyl-6-(2-methylpyrimidin-5-yl)indolin-2-one] was tested. Which IC50 did it give?
**A.** Its IC50 is 144 nM.

**Q.** How did the IC50 turn out when `Cc1ncc(-c2ccc3c(c2)N(c2cc(F)ncc2C)C(=O)C3(C)C)cn1` [Example 47, 1-(2-Fluoro-5-methylpyridin-4-yl)-3,3-dimethyl-6-(2-methylpyrimidin-5-yl)indolin-2-one] was run?
**A.** Its IC50 is 7190 nM.

**Q.** How did the IC50 turn out when `Cc1cc(N2C(=O)C(C)(C)c3ccc(-c4cnc(C)nc4)cc32)nc(C)n1` [Example 68, 1-(2,6-Dimethylpyrimidin-4-yl)-3,3-dimethyl-6-(2-methylpyrimidin-5-yl)indolin-2-one] was run?
**A.** The IC50 was 502 nM.

**Q.** Which IC50 does the source give for `Cc1ncc(-c2ccc3c(c2)N(c2ccncc2Cl)C(=O)C3(C)C)cn1` [Example 52, 1-(3-Chloropyridin-4-yl)-3,3-dimethyl-6-(2-methylpyrimidin-5-yl)indolin-2-one] here?
**A.** Its IC50 is 6960 nM.

**Q.** For `Cc1ccnc(N2C(=O)C(C)(C)c3ccc(-c4cnc(C)nc4)cc32)c1` [Example 60, 3,3-Dimethyl-1-(4-methylpyridin-2-yl)-6-(2-methylpyrimidin-5-yl)indolin-2-one], which IC50 is on record?
**A.** Its IC50 is 3780 nM.

**Q.** `Cc1ncc(-c2ccc3c(c2)N(c2cnc(C#N)cn2)C(=O)C3(C)C)cn1` [Example 96, 5-(3,3-dimethyl-6-(2-methylpyrimidin-5-yl)-2-oxoindolin-1-yl)pyrazine-2-carbonitrile] was tested. Which IC50 did it give?
**A.** Its IC50 is 154 nM.

**Q.** Which IC50 does the source give for `Cc1ncc(-c2ccc3c(c2)N(c2cnc(CO)nc2)C(=O)C3(C)C)cn1` [Example 102, 1-(2-(hydroxymethyl)pyrimidin-5-yl)-3,3-dimethyl-6-(2-methylpyrimidin-5-yl)indolin-2-one] here?
**A.** The IC50 was 10200 nM.

**Q.** Which IC50 does the source give for `Cc1ccc(N2C(=O)C(C)(C)c3ccc(-c4cnc(C)nc4)cc32)nc1` [Example 56, 3,3-Dimethyl-1-(5-methylpyridin-2-yl)-6-(2-methylpyrimidin-5-yl)indolin-2-one] here?
**A.** Its IC50 is 316 nM.

**Q.** How did the IC50 turn out when `Cc1cnc(-c2ccc3c(c2)N(c2cnc(C)nc2)C(=O)C3(C)C)cn1` [Example 133, 3,3-dimethyl-6-(5-methylpyrazin-2-yl)-1-(2-methylpyrimidin-5-yl)indolin-2-one] was run?
**A.** The IC50 was 4780 nM.

**Q.** With `Cc1cc(N2C(=O)C(C)(C)c3ccc(-c4cnc(C)nc4)cc32)cc(Cl)n1` [Example 119, 1-(2-chloro-6-methylpyridin-4-yl)-3,3-dimethyl-6-(2-methylpyrimidin-5-yl)indolin-2-one] as the molecule, how does the IC50 read?
**A.** Its IC50 is 335 nM.

**Q.** Which IC50 does the source give for `Cc1ncc(-c2ccc3c(c2)N(c2c[nH]cn2)C(=O)C3(C)C)cn1` [Example 85, 1-(1H-imidazol-4-yl)-3,3-dimethyl-6-(2-methylpyrimidin-5-yl)indolin-2-one] here?
**A.** Its IC50 is 5240 nM.

**Q.** `Cc1ncc(-c2ccc3c(c2)N(c2ncc[nH]2)C(=O)C3(C)C)cn1` [Example 92, 1-(1H-imidazol-2-yl)-3,3-dimethyl-6-(2-methylpyrimidin-5-yl)indolin-2-one] was tested. Which IC50 did it give?
**A.** Its IC50 is 1290 nM.

**Q.** Which IC50 does the source give for `Cc1cncc(-c2ccc3c(c2)N(c2cnc(C)cn2)C(=O)C3(C)C)c1` [Example 149, 3,3-dimethyl-1-(5-methylpyrazin-2-yl)-6-(5-methyl-3-pyridyl)indolin-2-one] here?
**A.** The IC50 was 207 nM.

**Q.** How did the IC50 turn out when “3,3-dimethyl-6-(2-methylpyrimidin-5-yl)-1-(1-(2,2,2-trifluoroethyl)-1H-pyrazol-3-yl)indolin-2-one [Example 139]” was run?
**A.** The IC50 was 140 nM.

**Q.** With `Cc1cncc(N2C(=O)C(C)(C)c3ccc(-c4cnc(C)nc4)cc32)n1` [Example 63, 3,3-Dimethyl-1-(6-methylpyrazin-2-yl)-6-(2-methylpyrimidin-5-yl)indolin-2-one] as the molecule, how does the IC50 read?
**A.** The IC50 was 670 nM.

**Q.** With “5-(3,3-dimethyl-1-(5-methylpyrimidin-2-yl)-2-oxoindolin-6-yl)-2-methylpyrimidine 1-oxide [Example 101]” as the molecule, how does the IC50 read?
**A.** Its IC50 is 2400 nM.

**Q.** With `Cc1ncc(N2C(=O)C(C)(C)c3ccc(-n4cnc(C(C)C)c4)cc32)cn1` [Example 38, 6-(4-Isopropylimidazol-1-yl)-3,3-dimethyl-1-(2-methylpyrimidin-5-yl)indolin-2-one] as the molecule, how does the IC50 read?
**A.** Its IC50 is 426 nM.

**Q.** `Cc1ncc(-c2ccc3c(c2)N(c2ccc(C)s2)C(=O)C3(C)C)cn1` [Example 27, 3,3-Dimethyl-6-(2-methylpyrimidin-5-yl)-1-(5-methylthiophen-2-yl)indolin-2-one] was tested. Which IC50 did it give?
**A.** Its IC50 is 355 nM.

**Q.** How did the IC50 turn out when `CCc1cncc(N2C(=O)C(C)(C)c3ccc(-c4cnc(C)nc4)cc32)c1` [Example 156, 1-(5-ethylpyridin-3-yl)-3,3-dimethyl-6-(2-methylpyrimidin-5-yl)indolin-2-one] was run?
**A.** The IC50 was 300 nM.

**Q.** How did the IC50 turn out when `Cc1cnc(N2C(=O)C(C)(C)c3ccc(-c4cnc(C)c(F)c4)cc32)cn1` [Example 151, 6-(5-fluoro-6-methyl-3-pyridyl)-3,3-dimethyl-1-(5-methylpyrazin-2-yl)indolin-2-one] was run?
**A.** The IC50 was 37 nM.

**Q.** `Cc1cncc(N2C(=O)C(C)(C)c3ccc(-c4ccnc(C)n4)cc32)n1` [Example 154, 3,3-dimethyl-1-(6-methylpyrazin-2-yl)-6-(2-methylpyrimidin-4-yl)indolin-2-one] was tested. Which IC50 did it give?
**A.** Its IC50 is 4470 nM.

**Q.** `CCn1ccc(N2C(=O)C(C)(C)c3ccc(-c4cnc(C)nc4)cc32)n1` [Example 94, 1-(1-ethyl-1H-pyrazol-3-yl)-3,3-dimethyl-6-(2-methylpyrimidin-5-yl)indolin-2-one] was tested. Which IC50 did it give?
**A.** Its IC50 is 1160 nM.

**Q.** Which IC50 does the source give for `Cc1cc(-c2ccc3c(c2)N(c2cncc(C)n2)C(=O)C3(C)C)ccn1` [Example 144, 3,3-dimethyl-1-(6-methylpyrazin-2-yl)-6-(2-methyl-4-pyridyl)indolin-2-one] here?
**A.** The IC50 was 3510 nM.

**Q.** For `Cc1ncc(-c2ccc3c(c2)N(c2cncc(C(F)(F)F)c2)C(=O)C3(C)C)cn1` [Example 152, 3,3-dimethyl-6-(2-methylpyrimidin-5-yl)-1-(5-(trifluoromethyl)pyridin-3-yl)indolin-2-one], which IC50 is on record?
**A.** The IC50 was 317 nM.

**Q.** `Cc1ccnc(N2C(=O)C(C)(C)c3ccc(-c4cnc(C)nc4)cc32)n1` [Example 64, 3,3-Dimethyl-1-(4-methylpyrimidin-2-yl)-6-(2-methylpyrimidin-5-yl)indolin-2-one] was tested. Which IC50 did it give?
**A.** The IC50 was 5090 nM.

**Q.** Which IC50 does the source give for `Cc1cnc(-c2ccc3c(c2)N(c2cncc(C)n2)C(=O)C3(C)C)cn1` [Example 132, 3,3-dimethyl-6-(5-methylpyrazin-2-yl)-1-(6-methylpyrazin-2-yl)indolin-2-one] here?
**A.** The IC50 was 2450 nM.

**Q.** `Cc1cc(C)nc(N2C(=O)C(C)(C)c3ccc(-c4cnc(C)nc4)cc32)n1` [Example 67, 1-(4,6-Dimethylpyrimidin-2-yl)-3,3-dimethyl-6-(2-methylpyrimidin-5-yl)indolin-2-one] was tested. Which IC50 did it give?
**A.** Its IC50 is 5630 nM.

**Q.** `Cc1cc(N2C(=O)C(C)(C)c3ccc(-c4cnc(C)nc4)cc32)ccn1` [Example 6, 3,3-Dimethyl-1-(2-methylpyridin-4-yl)-6-(2-methylpyrimidin-5-yl)indolin-2-one] was tested. Which IC50 did it give?
**A.** The IC50 was 2130 nM.

**Q.** With `Cc1cc(N2C(=O)C(C)(C)c3ccc(-n4cnc(C(C)C)c4)cc32)ccn1` [Example 36, 6-(4-Isopropylimidazol-1-yl)-3,3-dimethyl-1-(2-methyl-4-pyridyl)indolin-2-one] as the molecule, how does the IC50 read?
**A.** Its IC50 is 2460 nM.

**Q.** Which IC50 does the source give for `Cc1ccc(-c2ccc3c(c2)N(c2cnc(C)cn2)C(=O)C3(C)C)cn1` [Example 148, 3,3-dimethyl-1-(5-methylpyrazin-2-yl)-6-(6-methyl-3-pyridyl)indolin-2-one] here?
**A.** The IC50 was 402 nM.

**Q.** Which IC50 does the source give for `Cc1ncc(-c2ccc3c(c2)N(c2cncnc2)C(=O)C3(C)C)cn1` [Example 8, 3,3-Dimethyl-6-(2-methylpyrimidin-5-yl)-1-(pyrimidin-5-yl)indolin-2-one] here?
**A.** The IC50 was 3890 nM.

**Q.** For `Cc1ncc(-c2ccc3c(c2)N(c2cccnc2)C(=O)C3(C)C)cn1` [Example 3, 3,3-Dimethyl-6-(2-methylpyrimidin-5-yl)-1-(pyridin-3-yl)indolin-2-one], which IC50 is on record?
**A.** The IC50 was 1780 nM.

**Q.** With `Cc1ncc(-c2ccc3c(c2)N(c2cnc(Cl)nc2)C(=O)C3(C)C)cn1` [Example 114, 1-(2-chloropyrimidin-5-yl)-3,3-dimethyl-6-(2-methylpyrimidin-5-yl)indolin-2-one] as the molecule, how does the IC50 read?
**A.** Its IC50 is 456 nM.

**Q.** `Cc1ncc(-c2ccc3c(c2)N(c2cccnn2)C(=O)C3(C)C)cn1` [Example 76, 3,3-dimethyl-6-(2-methylpyrimidin-5-yl)-1-(pyridazin-3-yl)indolin-2-one] was tested. Which IC50 did it give?
**A.** Its IC50 is 2100 nM.

**Q.** How did the IC50 turn out when `Cc1ncc(-c2ccc3c(c2)N(c2nnc(C)o2)C(=O)C3(C)C)cn1` [Example 51, 3,3-Dimethyl-1-(5-methyl-1,3,4-oxadiazol-2-yl)-6-(2-methylpyrimidin-5-yl)indolin-2-one] was run?
**A.** Its IC50 is 1850 nM.

**Q.** For `Cc1ncc(-c2ccc3c(c2)N(c2ccc(CO)nc2)C(=O)C3(C)C)cn1` [Example 31, 1-(6-(Hydroxymethyl)pyridin-3-yl)-3,3-dimethyl-6-(2-methylpyrimidin-5-yl)indolin-2-one], which IC50 is on record?
**A.** Its IC50 is 168 nM.
